Data published in the NIST ThermoML archive (doi:10.1021/je500381c).
± gives the expanded uncertainty stated by the source.

Assay: xn = mol fraction of the nth substance listed
Details: for mass density / viscosity: 100 kPa, Liquid; for mass density: Vibrating tube method; for surface tension liquid-gas: Drop volume

OCC1CCCCC1 [cyclohexylmethanol] + CC12CC3CC(C1)CC(C)(C3)C2
Details | mass density [kg/m3] | surface tension liquid-gas [mN/m] | viscosity [mPa·s]
293.15 K, x1 = 0.1027 | 903.21 ± 0.12 | – | 4.113 ± 0.064
293.15 K, x1 = 0.1995 | 905.07 ± 0.12 | – | 4.718 ± 0.073
293.15 K, x1 = 0.3012 | 907.15 ± 0.12 | – | 5.602 ± 0.087
293.15 K, x1 = 0.4004 | 909.76 ± 0.12 | – | 6.901 ± 0.11
293.15 K, x1 = 0.4973 | 912.51 ± 0.12 | – | 8.435 ± 0.13
293.15 K, x1 = 0.6008 | 915.54 ± 0.12 | – | 11.2 ± 0.17
293.15 K, x1 = 0.7002 | 918.7 ± 0.12 | – | 14.93 ± 0.23
293.15 K, x1 = 0.7892 | 922.49 ± 0.12 | – | 21.14 ± 0.33
293.15 K, x1 = 0.9 | 925.92 ± 0.13 | – | 28.69 ± 0.45
293.15 K, x1 = 1 | 929.76 ± 0.13 | – | 37.75 ± 0.59
298.15 K, x1 = 0.1002 | – | 28.2 ± 0.16 | –
298.15 K, x1 = 0.1027 | 899.59 ± 0.12 | – | 3.615 ± 0.056
298.15 K, x1 = 0.1995 | 901.44 ± 0.12 | 28.36 ± 0.16 | 4.111 ± 0.064
298.15 K, x1 = 0.2996 | – | 28.56 ± 0.16 | –
298.15 K, x1 = 0.3012 | 903.51 ± 0.12 | – | 4.827 ± 0.075
298.15 K, x1 = 0.4004 | 906.13 ± 0.12 | 28.74 ± 0.16 | 5.842 ± 0.091
298.15 K, x1 = 0.4973 | 908.85 ± 0.12 | 28.95 ± 0.16 | 7.114 ± 0.11
298.15 K, x1 = 0.6008 | 911.97 ± 0.12 | 29.35 ± 0.16 | 9.121 ± 0.14
298.15 K, x1 = 0.7002 | 915.07 ± 0.12 | 29.83 ± 0.17 | 11.9 ± 0.19
298.15 K, x1 = 0.7892 | 918.88 ± 0.13 | – | 16.63 ± 0.26
298.15 K, x1 = 0.7999 | – | 30.46 ± 0.17 | –
298.15 K, x1 = 0.9 | 922.36 ± 0.13 | 31.33 ± 0.17 | 22.11 ± 0.35
298.15 K, x1 = 1 | 926.25 ± 0.13 | 32.43 ± 0.18 | 28.67 ± 0.45
303.15 K, x1 = 0.1027 | 895.96 ± 0.12 | – | 3.204 ± 0.05
303.15 K, x1 = 0.1995 | 897.78 ± 0.12 | – | 3.618 ± 0.056
303.15 K, x1 = 0.3012 | 899.85 ± 0.12 | – | 4.192 ± 0.065
303.15 K, x1 = 0.4004 | 902.45 ± 0.12 | – | 5.005 ± 0.078
303.15 K, x1 = 0.4973 | 905.16 ± 0.12 | – | 5.993 ± 0.093
303.15 K, x1 = 0.6008 | 908.3 ± 0.12 | – | 7.528 ± 0.12
303.15 K, x1 = 0.7002 | 911.44 ± 0.13 | – | 9.63 ± 0.15
303.15 K, x1 = 0.7892 | 915.23 ± 0.13 | – | 13.35 ± 0.21
303.15 K, x1 = 0.9 | 918.75 ± 0.13 | – | 17.36 ± 0.27
303.15 K, x1 = 1 | 922.71 ± 0.13 | – | 22.34 ± 0.35
308.15 K, x1 = 0.1027 | 892.31 ± 0.12 | – | 2.857 ± 0.044
308.15 K, x1 = 0.1995 | 894.11 ± 0.12 | – | 3.194 ± 0.05
308.15 K, x1 = 0.3012 | 896.17 ± 0.12 | – | 3.666 ± 0.057
308.15 K, x1 = 0.4004 | 898.75 ± 0.12 | – | 4.326 ± 0.067
308.15 K, x1 = 0.4973 | 901.46 ± 0.12 | – | 5.097 ± 0.079
308.15 K, x1 = 0.6008 | 904.6 ± 0.13 | – | 6.204 ± 0.097
308.15 K, x1 = 0.7002 | 907.77 ± 0.13 | – | 7.907 ± 0.12
308.15 K, x1 = 0.7892 | 911.57 ± 0.13 | – | 10.82 ± 0.17
308.15 K, x1 = 0.9 | 915.12 ± 0.13 | – | 13.92 ± 0.22
308.15 K, x1 = 1 | 919.14 ± 0.13 | – | 17.57 ± 0.28
313.15 K, x1 = 0.1027 | 888.65 ± 0.12 | – | 2.56 ± 0.04
313.15 K, x1 = 0.1995 | 890.42 ± 0.12 | – | 2.841 ± 0.044
313.15 K, x1 = 0.3012 | 892.47 ± 0.12 | – | 3.229 ± 0.05
313.15 K, x1 = 0.4004 | 895.03 ± 0.12 | – | 3.764 ± 0.059
313.15 K, x1 = 0.4973 | 897.73 ± 0.13 | – | 4.377 ± 0.068
313.15 K, x1 = 0.6008 | 900.87 ± 0.13 | – | 5.311 ± 0.083
313.15 K, x1 = 0.7002 | 904.09 ± 0.13 | – | 6.578 ± 0.1
313.15 K, x1 = 0.7892 | 907.87 ± 0.13 | – | 8.883 ± 0.14
313.15 K, x1 = 0.9 | 911.45 ± 0.13 | – | 11.3 ± 0.18
313.15 K, x1 = 1 | 915.53 ± 0.13 | – | 14.09 ± 0.22
318.15 K, x1 = 0.1027 | 884.98 ± 0.12 | – | 2.305 ± 0.036
318.15 K, x1 = 0.1995 | 886.71 ± 0.12 | – | 2.539 ± 0.04
318.15 K, x1 = 0.3012 | 888.75 ± 0.12 | – | 2.859 ± 0.045
318.15 K, x1 = 0.4004 | 891.29 ± 0.13 | – | 3.299 ± 0.051
318.15 K, x1 = 0.4973 | 893.98 ± 0.13 | – | 3.787 ± 0.059
318.15 K, x1 = 0.6008 | 897.11 ± 0.13 | – | 4.529 ± 0.071
318.15 K, x1 = 0.7002 | 900.37 ± 0.13 | – | 5.508 ± 0.086
318.15 K, x1 = 0.7892 | 904.14 ± 0.13 | – | 7.34 ± 0.12
318.15 K, x1 = 0.9 | 907.74 ± 0.13 | – | 9.262 ± 0.14
318.15 K, x1 = 1 | 911.88 ± 0.13 | – | 11.43 ± 0.18
323.15 K, x1 = 0.1027 | 881.29 ± 0.12 | – | 2.085 ± 0.033
323.15 K, x1 = 0.1995 | 882.99 ± 0.13 | – | 2.28 ± 0.036
323.15 K, x1 = 0.3012 | 885.01 ± 0.13 | – | 2.546 ± 0.04
323.15 K, x1 = 0.4004 | 887.53 ± 0.13 | – | 2.911 ± 0.045
323.15 K, x1 = 0.4973 | 890.21 ± 0.13 | – | 3.302 ± 0.052
323.15 K, x1 = 0.6008 | 893.33 ± 0.13 | – | 3.896 ± 0.061
323.15 K, x1 = 0.7002 | 896.61 ± 0.13 | – | 4.604 ± 0.072
323.15 K, x1 = 0.7892 | 900.37 ± 0.13 | – | 6.145 ± 0.096
323.15 K, x1 = 0.9 | 904 ± 0.13 | – | 7.642 ± 0.12
323.15 K, x1 = 1 | 908.19 ± 0.13 | – | 9.354 ± 0.15
328.15 K, x1 = 0.1027 | 877.59 ± 0.13 | – | 1.894 ± 0.03
328.15 K, x1 = 0.1995 | 879.24 ± 0.13 | – | 2.057 ± 0.032
328.15 K, x1 = 0.3012 | 881.25 ± 0.13 | – | 2.279 ± 0.036
328.15 K, x1 = 0.4004 | 883.75 ± 0.13 | – | 2.58 ± 0.04
328.15 K, x1 = 0.4973 | 886.41 ± 0.13 | – | 2.898 ± 0.045
328.15 K, x1 = 0.6008 | 889.51 ± 0.13 | – | 3.375 ± 0.053
328.15 K, x1 = 0.7002 | 892.81 ± 0.13 | – | 3.992 ± 0.062
328.15 K, x1 = 0.7892 | 896.56 ± 0.13 | – | 5.076 ± 0.079
328.15 K, x1 = 0.9 | 900.21 ± 0.13 | – | 6.342 ± 0.099
328.15 K, x1 = 1 | 904.45 ± 0.13 | – | 7.766 ± 0.12
333.15 K, x1 = 0.1027 | 873.88 ± 0.13 | – | 1.727 ± 0.027
333.15 K, x1 = 0.1995 | 875.48 ± 0.13 | – | 2.105 ± 0.033
333.15 K, x1 = 0.3012 | 877.47 ± 0.13 | – | 2.048 ± 0.032
333.15 K, x1 = 0.4004 | 879.94 ± 0.13 | – | 2.3 ± 0.036
333.15 K, x1 = 0.4973 | 882.58 ± 0.13 | – | 2.56 ± 0.04
333.15 K, x1 = 0.6008 | 885.67 ± 0.13 | – | 2.946 ± 0.046
333.15 K, x1 = 0.7002 | 888.98 ± 0.13 | – | 3.443 ± 0.054
333.15 K, x1 = 0.7892 | 892.71 ± 0.13 | – | 4.253 ± 0.067
333.15 K, x1 = 0.9 | 896.38 ± 0.13 | – | 5.984 ± 0.094
333.15 K, x1 = 1 | 900.67 ± 0.13 | – | 6.462 ± 0.1
